Where a name gives a salt, the structure may show the parent alone.
Key:
human β3 = target: T1, human β3 (Homo sapiens, UniProt P13945); assay: Human β3-agonist activities (cAMP in transfected CHO cells); assay type: cell-based; conditions: CHO cells transfected with human β3 gene; for EC50: cAMP quantitated by EIA after 30 minutes; for Emax: read-out: Intrinsic activity* (relative activities as compared with isoproterenol)
T1 construct: used as a probe to obtain the full length human β3 gene from a human genomic library; expressed in transfected cells; host or cells: CHO (Chinese hamster ovary) cells, pcDNA3 vector
T1 sequence (P13945 whole entry): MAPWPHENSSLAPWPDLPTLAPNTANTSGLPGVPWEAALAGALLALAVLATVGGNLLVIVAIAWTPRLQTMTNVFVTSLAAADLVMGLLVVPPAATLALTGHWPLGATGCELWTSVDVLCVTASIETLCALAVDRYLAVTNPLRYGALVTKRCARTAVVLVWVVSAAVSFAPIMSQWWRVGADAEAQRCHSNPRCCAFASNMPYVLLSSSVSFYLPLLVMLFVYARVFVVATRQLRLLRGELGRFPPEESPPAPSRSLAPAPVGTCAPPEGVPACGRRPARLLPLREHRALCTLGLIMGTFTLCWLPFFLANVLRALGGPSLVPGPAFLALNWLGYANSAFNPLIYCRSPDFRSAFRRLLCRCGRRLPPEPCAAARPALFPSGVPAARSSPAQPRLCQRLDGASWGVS
Protocol: Human β3-agonist activities were determined using CHO (Chinese hamster ovary) cells transfected with pcDNA3 (mfd. by Invitrogen) to which human β3 gene had been inserted. Human β3 fragment was first obtained from human adipose tissue cDNA (mfd. by Clonetech) by PCR using the primer of β3 (Krief, et al., J. Clin. Invest., vol. 91, pp. 344-349 (1993)). The human β3 fragment thus obtained was used as a probe to obtain the full length human β3 gene from a human genomic library (mfd. by Clonetech). The above cells were cultured in a Ham F-12 medium supplemented with 10% fetal bovine serum, 400 μg/mL geneticin (Gibco BRL), 100 U/mL penicillin and 100 μg/mL streptomycin. After placing these cells (5×10^5) into a 6-well plate and culturing them for 24 hours, they were allowed to stand on a serum-free Ham F-12 medium for 2 hours. The compound was first dissolved in DMSO, diluted to a concentration of 10^−6 M with Ham F-12 supplemented with 1 mM isobutylmethylxanthine and 1 mM ascorbic acid, and then added to the cells. After the cells were cultured for 30 minutes, the medium was removed, followed by addition of 0.5 mL of 1 N NaOH. The medium was allowed to stand for 20 minutes and then 0.5 mL of 1 N acetic acid was added to the medium. The medium was stirred and centrifuged, followed by quantitating cAMP with cAMP EIA kit (mfd. by Cayman). With respect to eight compounds among the compounds described in Examples, their relative activities (%) as compared with isoproterenol were indicated in Table 3. Isoproterenol was purchased from RBI (Research Biochemicals International). The results from Table 3 indicate that the compounds of the present invention have human β3-agonist activities.

male ddy mice = assay: Toxicity test; assay type: in vivo; conditions: orally administered to 6-week old male ddy mice at 100 mg/kg
[1] = tested on: transgenic mouse expressing human β3; assay: Thermogenesis in transgenic mouse expressing human β3; assay type: in vivo; conditions: orally administered to transgenic mice, 3 to 10 mg/kg
From the text: Ito, et al. prepared a replacement mouse expressing human β3 in its brown fat by introducing human β3 gene into a mouse whose mouse β3 gene had been knocked out (Ito, et al., Diabetes, vol. 47, pp. 1464-1471 (1998)). A compound of the present invention can be tested for antiobestic activity and antidiabetic activity using a transgenic mouse according to the following procedures.
The thermogenesis can be measured with OXYMAX System (Columbus) according to the method reported by Largis et al. (Drug Development Research, vol. 32, pp. 69-76 (1994)). According to this device, the amount of thermogenesis can be obtained by calculating the calories based on the amount of oxygen consumed and the amount of carbon dioxide generated. After the administration of a medicinal substance, the measurements are carried out for 120 minutes (15 points). The average of the measured values obtained for the latter […] (10 points) is converted into a value per body weight to give the amount of thermogenesis. When a test by repetitive administrations is carried out, a medicinal substance may be administered at a dose once daily, twice daily or the like. The duration of administration may be 1 week, 2 weeks or more. In a test by repetitive administrations, body weight, blood glucose level and insulin level can be monitored with the passage of time as the method of Largis et al. (Drug Development Research, vol. 32, pp. 69-76 (1994). It is also possible that after the completion of the administration, the animal is anatomized to measure the weight of fat tissue or to prepare a section followed by a microscopic examination. Further, the expression level of UCP-1 can be examined according to the method reported by Nagase et al. (J. Clin. Invest., vol. 97, pp. 2898-2904 (1996)).
The present compounds were orally administered to transgenic mice in an amount of from 3 to 10 mg/kg to measure their thermogenesis.

[2] = cAMP, relative to isoproterenol

SMILES	EC50 (human β3)	Intrinsic activity* (relative activities as compared with isoproterenol) (human β3; [2])	Mortality (male ddy mice)	Emax (human β3; [2])	Increase of thermogenesis as compared with the control group [1]
CNS(=O)(=O)c1cc(C(O)CNCCOc2ccc3c(C)c(C)[nH]c3c2)ccc1O.O=C(O)C(F)(F)F (stereo not shown) [Example 9, N-methyl-[5-[2-[2-(2,3-dimethyl-1H-indol-6-yloxy)ethylamino]-1-hydroxyethyl]-2-hydroxy]benzenesulfonamide trifluoroacetate]	16 nM	62%	none of eight animals were found to be dead	–	–
Cc1c(-c2ccccc2)[nH]c2cc(OCCNC[C@H](O)c3ccc(Cl)c(NS(C)(=O)=O)c3)ccc12 [Example 17, (R)-N-[5-[2-[2-(3-methyl-2-phenyl-1H-indol-6-yloxy)ethylamino]-1-hydroxyethyl]-2-chlorophenyl]methanesulfonamide hydrochloride]	4.4 nM	–	–	94%	–
Cc1[nH]c2cc(OCCNC[C@H](O)c3ccc(Cl)c(NS(C)(=O)=O)c3)ccc2c1C.Cl [Example 10, (R)-N-[5-[2-[2-(2,3-dimethyl-1H-indol-6-yloxy)ethylamino]-1-hydroxyethyl]-2-chlorophenyl]methanesulfonamide hydrochloride]	4.5 nM	–	none of eight animals were found to be dead	78%	15%
Cc1[nH]c2cc(OCCNCC(O)c3ccc(Cl)c(NS(C)(=O)=O)c3)ccc2c1C (stereo not shown) [Example 4, N-[5-[2-[2-(2,3-dimethyl-1H-indol-6-yloxy)ethylamino]-1-hydroxyethyl]-2-chlorophenyl]methanesulfonamide trifluoroacetate]	10 nM	–	–	73%	–
Cc1[nH]c2cc(OCCNCC(O)c3cccc(NS(C)(=O)=O)c3)ccc2c1C.O=C(O)C(F)(F)F (stereo not shown) [Example 3, N-[3-[2-[2-(2,3-dimethyl-1H-indol-6-yloxy)ethylamino]-1-hydroxyethyl]phenyl]methanesulfonamide trifluoroacetate]	8.7 nM	–	none of eight animals were found to be dead	100%	–
CNS(=O)(=O)c1cc([C@@H](O)CNCCOc2ccc3c(C)c(C)[nH]c3c2)ccc1O [Example 12, N-methyl-(R)-[5-[2-[2-(2,3-dimethyl-1H-indol-6-yloxy)ethylamino]-1-hydroxyethyl]-2-hydroxy]benzenesulfonamide hydrochloride]	5.3 nM	–	–	71%	–
Cc1[nH]c2cc(OCCNC[C@H](O)c3cccc(NS(C)(=O)=O)c3)ccc2c1C.Cl [Example 11, (R)-N-[3-[2-[2-(2,3-dimethyl-1H-indol-6-yloxy)ethylamino]-1-hydroxyethyl]phenyl]methanesulfonamide hydrochloride]	4.8 nM	–	–	80%	17%
Cc1c(-c2ccccc2)[nH]c2cc(OCCNC[C@H](O)c3cccc(NS(C)(=O)=O)c3)ccc12.Cl [Example 13, (R)-N-[3-[2-[2-(3-methyl-2-phenyl-1H-indol-6-yloxy)ethylamino]-1-hydroxyethyl]phenyl]methanesulfonamide hydrochloride]	14 nM	–	–	96%	15%

Source: patent US7049445B2, “Bicyclic compounds” (Asahi Kasei Pharma Corporation, priority 2000, dated 2006)
